Results on 13 compounds are retold here after US20220119411A1, “IMMUNOMODULATORS, COMPOSITIONS AND METHODS THEREOF” (BETTA PHARMACEUTICALS CO., LTD, priority 2018, published 2022).

pIC50: −log10 of the molar value. Where only a bound is given, the exact number is not on record here.

The target of the experiment is T1, PD-1/PD-L1 protein/protein interaction (Homo sapiens, UniProt Q9NZQ7).
T1 construct: Recombinant human PD-L1 protein (19-238) with a His-tag at the C-terminus; purchased AcroBiosystems PD1-H5229 (PD-L1); PD1-H5257 (PD-1)
T1 sequence (Q9NZQ7 19-238): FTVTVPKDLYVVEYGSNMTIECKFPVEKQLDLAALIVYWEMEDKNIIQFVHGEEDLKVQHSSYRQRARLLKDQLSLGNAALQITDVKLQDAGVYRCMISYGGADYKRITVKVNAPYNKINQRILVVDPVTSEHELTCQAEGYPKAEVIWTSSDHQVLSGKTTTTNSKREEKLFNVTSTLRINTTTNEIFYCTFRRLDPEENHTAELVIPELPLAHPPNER
The experiment is described as follows: PD-1/PD-L1 homogenous time-resolved fluorescence (HTRF) binding assay. Particulars: recombinant human PD-L1 (19-238)-His 10 nM, human PD-1 (25-167)-Fc 3 nM, 25° C., PBS pH 7.4. The protocol:
Resolved Fluorescence (HTRF) Binding Assay
The assays were conducted in a standard black 384-well polystyrene plate with a final volume of 20 μL. Inhibitors were first serially diluted in DMSO and then added to the plate wells before the addition of other reaction components. The final concentration of DMSO in the assay was 1%. The assays were carried out at 25° C. in the PBS buffer (pH 7.4) with 0.05% Tween-20 and 0.1% BSA. Recombinant human PD-L1 protein (19-238) with a His-tag at the C-terminus was purchased from AcroBiosy stems (PD1-H5229). Recombinant human PD-1 protein (25-167) with Fc tag at the C-terminus was also purchased from AcroBiosystems (PD1-H5257). PD-L1 and PD-1 proteins were diluted in the assay buffer and 10 μL was added to the plate well. Plates were centrifuged and proteins were preincubated with inhibitors for 40 min. The incubation was followed by the addition of 10 μL of HTRF detection buffer supplemented with Europium cryptate-labeled anti-human IgG (PerkinElmer-AD0212) specific for Fc and anti-His antibody conjugated to SureLight®—Allophycocyanin (APC, PerkinElmer-AD0059H). After centrifugation, the plate was incubated at 25° C. for 60 min. Before reading on a PHERAstar FS plate reader (665 nm/620 nm ratio). Final concentrations in the assay were—3 nM PD1, 10 nM PD-L1, 1 nM europium anti-human IgG and 20 nM anti-His-Allophycocyanin. IC50 determination was performed by fitting the curve of percent control activity versus the log of the inhibitor concentration using the GraphPad Prism 5.0 software.
Data obtained for the Example compounds using the PD-1/PD-L1 homogenous time-resolved fluorescence (HTRF) binding assay described in Example A is provided in Table 2.
For orientation: pIC50 means the negative decadic logarithm of the IC50, by convention in mol/L. With `Cc1nc(C(=O)N2CCc3c(-c4cccc5c4CCN5C(=O)CCN4CCC(O)C4)cccc32)sc1CNCCO` (stereo not shown) [Example 46, 1-(1′-(5-(((2-hydroxyethyl)amino)methyl)-4-methylthiazole-2-carbonyl)-[4,4′-biindolin]-1-yl)-3-(3-hydroxypyrrolidin-1-yl)propan-1-one], the pIC50 was at least 7.60.

On to `O=C(c1cn2c(n1)CNCC2)N1CCc2c(-c3cccc4c3cnn4CCCN3CCOCC3)cccc21` [Example 47, (4-(1-(3-morpholinopropyl)-1H-indazol-4-yl)indolin-1-yl)(5,6,7,8-tetrahydroimidazo[1,2-a]pyrazin-2-yl)methanone], for which the negative logarithm of the IC50 (pIC50) is 7.00 to 7.60. Regarding `Cn1ncc2c(-c3cccc4c3CCN4C(=O)c3cn4c(n3)CNCC4)cccc21` [Example 48, (4-(1-methyl-1H-indazol-4-yl)indolin-1-yl)(5,6,7,8-tetrahydroimidazo[1,2-a]pyrazin-2-yl)methanone], the negative logarithm of the IC50 (pIC50) is 6.70 to 7.00.

As to `O=C(O)CN1CCc2nc(C(=O)N3CCc4c(-c5ccc(NC(=O)CCN6CCC(O)C6)cc5)cccc43)sc2C1` (stereo not shown) [Example 49, 2-(2-(4-(4-(3-(3-hydroxypyrrolidin-1-yl)propanamido)phenyl)indoline-1-carbonyl)-6,7-dihydrothiazolo[5,4-c]pyridin-5(4H)-yl)acetic acid], the negative-log IC50 (pIC50) was at least 7.60.

For the compound `O=C(O)CN1CCc2nc(C(=O)N3CCc4c(-c5ccc(OCCCN6CCC(O)C6)cc5)cccc43)sc2C1` (stereo not shown) [Example 50, 2-(2-(4-(4-(3-(3-hydroxypyrrolidin-1-yl)propoxy)phenyl)indoline-1-carbonyl)-6,7-dihydrothiazolo[5,4-c]pyridin-5(4H)-yl)acetic acid], the pIC50 is at least 7.60. For `Cn1c(C(=O)N2CCCc3c(-c4cccc(OCCN5CCOCC5)c4)cccc32)nc2c1CN(CC(=O)O)CC2` [Example 51, 2-(3-methyl-2-(5-(3-(2-morpholinoethoxy)phenyl)-1,2,3,4-tetrahydroquinoline-1-carbonyl)-3,4,6,7-tetrahydro-5H-imidazo[4,5-c]pyridin-5-yl)acetic acid] the value was at least 7.60; for `Cn1c(C(=O)N2CCCc3c(-c4cccc(OCCN5CCOCC5)c4)cccc32)nc2c1CCN(CC(=O)O)C2` [Example 52, 2-(1-methyl-2-(5-(3-(2-morpholinoethoxy)phenyl)-1,2,3,4-tetrahydroquinoline-1-carbonyl)-1,4,6,7-tetrahydro-5H-imidazo[4,5-c]pyridin-5-yl)acetic acid], at least 7.60. In the case of `O=C(c1nc2c(o1)CN(CCO)CC2)N1CCCc2c(-c3cccc(OCCN4CCOCC4)c3)cccc21` [Example 53, (5-(2-hydroxyethyl)-4,5,6,7-tetrahydrooxazolo[5,4-c]pyridin-2-yl)(5-(3-(2-morpholinoethoxy)phenyl)-3,4-dihydroquinolin-1(2H)-yl)methanone] it was 7.00 to 7.60; in that of `O=C(O)CCN1CCc2nc(C(=O)N3CCCc4c(-c5cccc(OCCN6CCOCC6)c5)cccc43)oc2C1` [Example 54, 3-(2-(5-(3-(2-morpholinoethoxy)phenyl)-1,2,3,4-tetrahydroquinoline-1-carbonyl)-6,7-dihydrooxazolo[5,4-c]pyridin-5(4H)-yl)propanoic acid], 6.70 to 7.00. `O=C(O)CN1CCc2nc(C(=O)N3CCc4c(-c5ccc6c(c5)OCCO6)cccc43)sc2C1` [Example 55, 2-(2-(4-(2,3-dihydrobenzo[b][1,4]dioxin-6-yl)indoline-1-carbonyl)-6,7-dihydrothiazolo[5,4-c]pyridin-5(4H)-yl)acetic acid]: the pIC50 is 7.00 to 7.60. For `O=C(c1nc2c(s1)CN(CCO)CC2)N1CCc2c(-c3ccc4c(c3)OCCO4)cccc21` [Example 56, (4-(2,3-dihydrobenzo[b][1,4]dioxin-6-yl)indolin-1-yl)(5-(2-hydroxyethyl)-4,5,6,7-tetrahydrothiazolo[5,4-c]pyridin-2-yl)methanone] the value was at least 7.60. For `CN1CCc2nc(C(=O)N3CCc4c(-c5ccc6c(c5)OCCO6)cccc43)sc2C1` [Example 57, (4-(2,3-dihydrobenzo[b][1,4]dioxin-6-yl)indolin-1-yl)(5-methyl-4,5,6,7-tetrahydrothiazolo[5,4-c]pyridin-2-yl)methanone] the value was at least 7.60. With `Cc1c(Nc2nccc3cc(CN4CCCC[C@H]4C(=O)O)cnc23)cccc1-c1cccc2c1CCN2C(=O)c1nc2c(s1)CNCC2` [Example 58, (S)-1-((8-((2-methyl-3-(1-(4,5,6,7-tetrahydrothiazolo[5,4-c]pyridine-2-carbonyl)indolin-4-yl)phenyl)amino)-1,7-naphthyridin-3-yl)methyl)piperidine-2-carboxylic acid], the pIC50 was at least 7.60.
